Test results from ChEMBL document CHEMBL1152592, “Design, synthesis and biological evaluations of novel 7-[3-(1-aminocycloalkyl)pyrrolidin-1-yl]-6-desfluoro-8-methoxyquinolones with potent antibacterial activity against multi-drug resistant Gram-positive bacteria” (Bioorg Med Chem, 2009).
In brackets after ≈: the same amount, converted by molar mass.

How the values were obtained:
[1] = AUC (0 to 6 hrs) in Crj:CD rat kidney at 20 mg/kg, iv; assay type: ADME, organism-based; parameters: time < 6 hr, dose 20 mg/kg, route intravenous
[2] = AUC (0 to 6 hrs) in Crj:CD rat lung at 20 mg/kg, iv; assay type: ADME, organism-based; parameters: time < 6 hr, dose 20 mg/kg, route intravenous
[3] = Ratio of AUC (0 to 6 hrs) liver to serum in Crj:CD rat […] at 20 mg/kg, iv; assay type: ADME, organism-based; parameters: dose 20 mg/kg, route intravenous
[4] = Ratio of AUC (0 to 6 hrs) kidney to serum in Crj:CD rat […] at 20 mg/kg, iv; assay type: ADME, organism-based; parameters: dose 20 mg/kg, route intravenous
[5] = Ratio of AUC (0 to 6 hrs) lung to serum in Crj:CD rat lung at 20 mg/kg, iv; assay type: ADME, organism-based; parameters: dose 20 mg/kg, route intravenous
[6] = Cmax in cynomolgus monkey serum at 20 mg/kg, po; assay type: ADME, organism-based, Macaca fascicularis; parameters: dose 20 mg/kg, route oral
[7] = Cmax in cynomolgus monkey serum at 20 mg/kg, iv; assay type: ADME, organism-based, Macaca fascicularis; parameters: dose 20 mg/kg, route intravenous
[8] = Half life in cynomolgus monkey serum at 20 mg/kg, po; assay type: ADME, organism-based, Macaca fascicularis; parameters: dose 20 mg/kg, route oral
[9] = Half life in cynomolgus monkey serum at 20 mg/kg, iv; assay type: ADME, organism-based, Macaca fascicularis; parameters: dose 20 mg/kg, route intravenous
[10] = AUC (0 to 6 hrs) in cynomolgus monkey serum at 20 mg/kg, po; assay type: ADME, organism-based, Macaca fascicularis, Plasma; parameters: time < 6 hr, dose 20 mg/kg, route oral
[11] = AUC (0 to 6 hrs) in cynomolgus monkey serum at 20 mg/kg, iv; assay type: ADME, organism-based, Macaca fascicularis, Plasma; parameters: time < 6 hr, dose 20 mg/kg, route intravenous
[12] = Oral bioavailability in cynomolgus monkey serum at 20 mg/kg; assay type: ADME, organism-based, Macaca fascicularis
Staphylococcus aureus [13] = assay: Antibacterial activity against Staphylococcus aureus FDA 209-P after 18 hrs by twofold microbroth dilution method; assay type: functional
[14] = system: Staphylococcus epidermidis; assay: Antibacterial activity against Staphylococcus epidermidis 56500 after 18 hrs by twofold microbroth dilution method; assay type: functional; conditions: Staphylococcus epidermidis, 56500, 18 h
Streptococcus pneumoniae [15] = assay: Antibacterial activity against Streptococcus pneumoniae J-24 after 18 hrs by twofold microbroth dilution method; assay type: functional; conditions: J-24, 18 h
Streptococcus pyogenes = assay: Antibacterial activity against Streptococcus pyogenes G-36 after 18 hrs by twofold microbroth dilution method; assay type: functional; conditions: G-36, 18 h
Streptococcus mitis = assay: Antibacterial activity against Streptococcus mitis IID685 after 18 hrs by twofold microbroth dilution method; assay type: functional; conditions: IID685, 18 h
Enterococcus faecalis [16] = assay: Antibacterial activity against Enterococcus faecalis ATCC 19433 after 18 hrs by twofold microbroth dilution method; assay type: functional; conditions: ATCC19433, 18 h
Escherichia coli = assay: Antibacterial activity against Escherichia coli NIHJ after 18 hrs by twofold microbroth dilution method; assay type: functional
Klebsiella pneumoniae = assay: Antibacterial activity against Klebsiella pneumoniae type 2 after 18 hrs by twofold microbroth dilution method; assay type: functional; conditions: type 2, 18 h
Pseudomonas aeruginosa = assay: Antibacterial activity against Pseudomonas aeruginosa PAO1 after 18 hrs by twofold microbroth dilution method; assay type: functional; conditions: PAO1, 18 h
Mus musculus [17] = assay: Toxicity in Slc:ddY mouse at 100 mg/kg, iv; assay type: organism-based; parameters: dose 100 mg/kg, route intravenous; conditions: in vivo
Mus musculus [18] = assay: Toxicity in Slc:ddY mouse assessed as micronucleated reticulocyte in blood at 150 mg/kg, iv after 48 hrs of treatment by fluorescence microscopy; assay type: organism-based; parameters: dose 150 mg/kg, route intravenous; conditions: in vivo
[19] = Aqueous […] of the compound; assay type: physicochemical; conditions: aqueous (not further specified)
Staphylococcus aureus [20] = assay: Antibacterial activity against levofloxacin, methicillin-resistant Staphylococcus aureus after 18 hrs by twofold microbroth dilution method; assay type: functional
Staphylococcus aureus [21] = assay: Antibacterial activity against ciprofloxacin, methicillin-resistant Staphylococcus aureus after 18 hrs by twofold microbroth dilution method; assay type: functional
Streptococcus pneumoniae [22] = assay: Antibacterial activity against penicillin-intermediate resistant Streptococcus pneumoniae after 18 hrs by twofold microbroth dilution method; assay type: functional
Enterococcus faecalis [23] = assay: Antibacterial activity against vancomycin-resistant Enterococcus faecalis after 18 hrs by twofold microbroth dilution method; assay type: functional
Enterococcus faecium = assay: Antibacterial activity against vancomycin-resistant Enterococcus faecium after 18 hrs by twofold microbroth dilution method; assay type: functional
[24] = Inhibition of Staphylococcus aureus wild type DNA topoisomerase 4
[25] = Inhibition of Staphylococcus aureus DNA topoisomerase 4 Ser80Phe mutant
Staphylococcus aureus [26] = assay: Selectivity ratio of IC50 for Staphylococcus aureus DNA topoisomerase 4 Ser80Phe mutant to IC50 for Staphylococcus aureus wild type DNA topoisomerase 4
DNA gyrase = DNA gyrase (Staphylococcus aureus, UniProt P0A0K8+P20831); assay: Inhibition of Staphylococcus aureus wild type DNA gyrase; assay type: protein-complex assay
DNA gyrase subunit A = DNA gyrase subunit A (Staphylococcus aureus, UniProt P20831, S84L); assay: Inhibition of Staphylococcus aureus DNA gyrase Ser84Leu mutant
Staphylococcus aureus [27] = assay: Selectivity ratio of IC50 for Staphylococcus aureus DNA gyrase Ser84Leu mutant to IC50 for Staphylococcus aureus wild type DNA gyrase
[28] = Cmax in Crj:CD rat serum at 20 mg/kg, po; assay type: ADME, organism-based; parameters: dose 20 mg/kg, route oral
[29] = Half life in Crj:CD rat serum at 20 mg/kg, po; assay type: ADME, organism-based; parameters: dose 20 mg/kg, route oral
[30] = AUC (0 to 6hrs) in Crj:CD rat serum at 20 mg/kg, po; assay type: ADME, organism-based; parameters: time < 6 hr, dose 20 mg/kg, route oral
[31] = Oral bioavailability in Crj:CD rat serum at 20 mg/kg; assay type: ADME, organism-based
[32] = Cmin in Crj:CD rat serum at 20 mg/kg, iv after 5 mins; assay type: ADME, organism-based; parameters: dose 20 mg/kg, route intravenous; conditions: read-out: Cmin
[33] = Cmin in Crj:CD rat liver at 20 mg/kg, iv after 5 mins; assay type: ADME, organism-based; parameters: dose 20 mg/kg, route intravenous; conditions: read-out: Cmin
[34] = Cmin in Crj:CD rat kidney at 20 mg/kg, iv after 5 mins; assay type: ADME, organism-based; parameters: dose 20 mg/kg, route intravenous; conditions: read-out: Cmin
[35] = Cmin in Crj:CD rat lung at 20 mg/kg, iv after 5 mins; assay type: ADME, organism-based; parameters: dose 20 mg/kg, route intravenous; conditions: read-out: Cmin
[36] = Half life in Crj:CD rat serum at 20 mg/kg, iv; assay type: ADME, organism-based; parameters: dose 20 mg/kg, route intravenous
[37] = Half life in Crj:CD rat liver at 20 mg/kg, iv; assay type: ADME, organism-based; parameters: dose 20 mg/kg, route intravenous
[38] = Half life in Crj:CD rat kidney at 20 mg/kg, iv; assay type: ADME, organism-based; parameters: dose 20 mg/kg, route intravenous
[39] = Half life in Crj:CD rat lung at 20 mg/kg, iv; assay type: ADME, organism-based; parameters: dose 20 mg/kg, route intravenous
[40] = AUC (0 to 6 hrs) in Crj:CD rat serum at 20 mg/kg, iv; assay type: ADME, organism-based; parameters: time < 6 hr, dose 20 mg/kg, route intravenous
[41] = AUC (0 to 6 hrs) in Crj:CD rat liver at 20 mg/kg, iv; assay type: ADME, organism-based; parameters: time < 6 hr, dose 20 mg/kg, route intravenous

## COc1c(N2CC[C@@H](C3(N)CC3)C2)ccc2c(=O)c(C(=O)O)cn([C@@H]3C[C@@H]3F)c12
[1]
  AUC(0-t) at 6 h: 64400 ng·h/mL
[2]
  AUC(0-t) at 6 h: 45500 ng·h/mL
[3]
  Kp: 4.6
[4]
  Kp: 4.4
[5]
  Kp: 3.1
[6]
  Cmax: 3700 ng/mL
[7]
  Cmax: 12300 ng/mL
[8]
  half-life: 6 h
[9]
  half-life: 4.4 h
[10]
  AUC(0-t) at 6 h: 37500 ng·h/mL
[11]
  AUC(0-t) at 6 h: 64400 ng·h/mL
[12]
  bioavailability: 58.2%
Staphylococcus aureus [13]
  MIC: ≤ 0.003 µg/mL
[14]
  MIC: 0.006 µg/mL (≈ 0.0149 µM)
Streptococcus pneumoniae [15]
  MIC: 0.006 µg/mL (≈ 0.0149 µM)
Streptococcus pyogenes
  MIC: 0.006 µg/mL (≈ 0.0149 µM)
Streptococcus mitis
  MIC: 0.003 µg/mL (≈ 0.00747 µM)
Enterococcus faecalis [16]
  MIC: 0.025 µg/mL (≈ 0.0623 µM)
Escherichia coli
  MIC: ≤ 0.003 µg/mL
Klebsiella pneumoniae
  MIC: 0.05 µg/mL (≈ 0.125 µM)
Pseudomonas aeruginosa
  MIC: 0.39 µg/mL (≈ 0.972 µM)
Mus musculus [17]
  Activity: Non-toxic
Mus musculus [18]
  Activity: Toxic
[19]
  solubility: 480 µg/mL (≈ 1200 µM)
Staphylococcus aureus [20]
  MIC50: 0.12 µg/mL (≈ 0.299 µM)
  MIC80: 1 µg/mL (≈ 2.49 µM)
  MIC90: 1 µg/mL (≈ 2.49 µM)
Staphylococcus aureus [21]
  MIC50: 0.06 µg/mL (≈ 0.149 µM)
  MIC90: 0.5 µg/mL (≈ 1.25 µM)
Streptococcus pneumoniae [22]
  MIC50: 0.03 µg/mL (≈ 0.0747 µM)
  MIC90: 0.03 µg/mL (≈ 0.0747 µM)
Enterococcus faecalis [23]
  MIC50: 0.25 µg/mL (≈ 0.623 µM)
  MIC90: 0.5 µg/mL (≈ 1.25 µM)
Enterococcus faecium
  MIC50: 0.25 µg/mL (≈ 0.623 µM)
  MIC90: 2 µg/mL (≈ 4.98 µM)
[24]
  IC50: 0.309 µg/mL (≈ 0.77 µM)
[25]
  IC50: 1.76 µg/mL (≈ 4.38 µM)
Staphylococcus aureus [26]
  Ratio IC50: 5.7
DNA gyrase
  IC50: 2.08 µM
DNA gyrase subunit A
  IC50: 19.5 µM
Staphylococcus aureus [27]
  Ratio IC50: 9.35
[28]
  Cmax: 6700 ng/mL
[29]
  half-life: 1.3 h
[30]
  AUC(0-t) at 6 h: 9800 ng·h/mL
[31]
  bioavailability: 67.4%
[32]
  concentration at 5 min: 11000 ng/mL
[33]
  concentration at 5 min: 48500 ng/mL
[34]
  concentration at 5 min: 47200 ng/mL
[35]
  concentration at 5 min: 32400 ng/mL
[36]
  half-life: 1.2 h
[37]
  half-life: 1.1 h
[38]
  half-life: 1.4 h
[39]
  half-life: 1.2 h
[40]
  AUC(0-t) at 6 h: 14500 ng·h/mL
[41]
  AUC(0-t) at 6 h: 66100 ng·h/mL
